# In PubChem BioAssay AID1918948 (Molecular Pharmacology Branch, DTP, NCI, 2023):
# Tested on: K-562 leukemia growth, % test/control
# Test: Anticancer human tumor K-562 cell line growth inhibition;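 further: spheroids exposed to compounds for 7 days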;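 on viability, T/C: 100% = DMSO vehicle wells and lower values mean fewer viable cells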
# Settings: spheroids with HUVEC and MSC; for IC50: curve of first compound; for viability, T/C: stronger effect = lower value
# Procedure, shortened: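 Drug combinations with the LSD1 inhibitor iadademstat tested on tumor cells co-cultured as spheroids with endothelial cells and mesenchymal stem cells. Concentrations descended in half-log increments from clinical Cmax or 10 microM.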
# [1] = second compound 0.1 µM, first compound 0.000316 µM
# [2] = second compound 0.1 µM, first compound 0.001 µM
# [3] = second compound 0.1 µM, first compound 0.00316 µM
# [4] = second compound 0.1 µM, first compound 0.01 µM
# [5] = second compound 0.1 µM, first compound 0.0316 µM
# [6] = second compound 0.1 µM, first compound 0.1 µM
# [7] = second compound 0.316 µM, first compound 0.000316 µM
# [8] = second compound 0.316 µM, first compound 0.001 µM
# [9] = second compound 0.316 µM, first compound 0.00316 µM
# [10] = second compound 0.316 µM, first compound 0.01 µM
# [11] = second compound 0.316 µM, first compound 0.0316 µM
# [12] = second compound 0.316 µM, first compound 0.1 µM
# [13] = second compound 1 µM, first compound 0.000316 µM
# [14] = second compound 1 µM, first compound 0.001 µM
# [15] = second compound 1 µM, first compound 0.00316 µM
# [16] = second compound 1 µM, first compound 0.01 µM
# [17] = second compound 1 µM, first compound 0.0316 µM
# [18] = second compound 1 µM, first compound 0.1 µM
# [19] = second compound 3.16 µM, first compound 0.000316 µM
# [20] = second compound 3.16 µM, first compound 0.001 µM
# [21] = second compound 3.16 µM, first compound 0.00316 µM
# [22] = second compound 3.16 µM, first compound 0.01 µM
# [23] = second compound 3.16 µM, first compound 0.0316 µM
# [24] = second compound 3.16 µM, first compound 0.1 µM
# [25] = second compound 10 µM, first compound 0.000316 µM
# [26] = second compound 10 µM, first compound 0.001 µM
# [27] = second compound 10 µM, first compound 0.00316 µM
# [28] = second compound 10 µM, first compound 0.01 µM
# [29] = second compound 10 µM, first compound 0.0316 µM
# [30] = second compound 10 µM, first compound 0.1 µM
structure (smiles),measurement,setting,value
CC(C)CC(NC(=O)C(Cc1ccccc1)NC(=O)c1cnccn1)B(O)O (stereo not given) + NC1CC1c1ccc(-c2cccc(O)c2)cc1,IC50,second compound 0.1 µM,0.585 nM
same,IC50,second compound 0.316 µM,0.588 nM
same,IC50,second compound 1 µM,0.601 nM
same,IC50,second compound 3.16 µM,0.576 nM
same,IC50,second compound 10 µM,0.525 nM
same,"viability, T/C",[1],103%
same,"viability, T/C",[2],3.66%
same,"viability, T/C",[3],0.7%
same,"viability, T/C",[4],0.61%
same,"viability, T/C",[5],0.46%
same,"viability, T/C",[6],0.42%
same,"viability, T/C",[7],105%
same,"viability, T/C",[8],3.12%
same,"viability, T/C",[9],0.63%
same,"viability, T/C",[10],0.53%
same,"viability, T/C",[11],0.48%
same,"viability, T/C",[12],0.47%
same,"viability, T/C",[13],109%
same,"viability, T/C",[14],3.33%
same,"viability, T/C",[15],0.63%
same,"viability, T/C",[16],0.53%
same,"viability, T/C",[17],0.39%
same,"viability, T/C",[18],0.56%
same,"viability, T/C",[19],102%
same,"viability, T/C",[20],2.37%
same,"viability, T/C",[21],0.61%
same,"viability, T/C",[22],0.46%
same,"viability, T/C",[23],0.43%
same,"viability, T/C",[24],0.44%
same,"viability, T/C",[25],87.7%
same,"viability, T/C",[26],2.01%
same,"viability, T/C",[27],0.5%
same,"viability, T/C",[28],0.46%
same,"viability, T/C",[29],0.43%
same,"viability, T/C",[30],0.39%
CC(C)CC(NC(=O)CNC(=O)c1cc(Cl)ccc1Cl)B1OC(=O)CC(CC(=O)O)(C(=O)O)O1 (stereo not given) + NC1CC1c1ccc(-c2cccc(O)c2)cc1,IC50,second compound 0.1 µM,14.2 nM
same,IC50,second compound 0.316 µM,12.7 nM
same,IC50,second compound 1 µM,9.67 nM
same,IC50,second compound 3.16 µM,7.83 nM
same,IC50,second compound 10 µM,6.56 nM
same,"viability, T/C",[1],110%
same,"viability, T/C",[2],105%
same,"viability, T/C",[3],107%
same,"viability, T/C",[4],66.6%
same,"viability, T/C",[5],11.4%
same,"viability, T/C",[6],2.83%
same,"viability, T/C",[7],107%
same,"viability, T/C",[8],99.7%
same,"viability, T/C",[9],102%
same,"viability, T/C",[10],60%
same,"viability, T/C",[11],10.7%
same,"viability, T/C",[12],2.8%
same,"viability, T/C",[13],103%
same,"viability, T/C",[14],96.1%
same,"viability, T/C",[15],102%
same,"viability, T/C",[16],48.4%
same,"viability, T/C",[17],9.51%
same,"viability, T/C",[18],2.55%
same,"viability, T/C",[19],101%
same,"viability, T/C",[20],96.6%
same,"viability, T/C",[21],101%
same,"viability, T/C",[22],36.7%
same,"viability, T/C",[23],9.01%
same,"viability, T/C",[24],2.3%
same,"viability, T/C",[25],95.5%
same,"viability, T/C",[26],96.8%
same,"viability, T/C",[27],97.2%
same,"viability, T/C",[28],23.1%
same,"viability, T/C",[29],5.77%
same,"viability, T/C",[30],1.88%
Nc1ccccc1NC(=O)c1ccc(CNC(=O)OCc2cccnc2)cc1 + NC1CC1c1ccc(-c2cccc(O)c2)cc1,IC50,second compound 0.1 µM,180 nM
same,IC50,second compound 0.316 µM,173 nM
same,IC50,second compound 1 µM,165 nM
same,IC50,second compound 3.16 µM,152 nM
same,IC50,second compound 10 µM,121 nM
same,"viability, T/C","second compound 0.1 µM, first compound 0.00949 µM",114%
same,"viability, T/C","second compound 0.1 µM, first compound 0.03 µM",111%
same,"viability, T/C","second compound 0.1 µM, first compound 0.0949 µM",103%
same,"viability, T/C","second compound 0.1 µM, first compound 0.3 µM",7.04%
same,"viability, T/C","second compound 0.1 µM, first compound 0.949 µM",0.24%
same,"viability, T/C","second compound 0.1 µM, first compound 3 µM",1.31%
same,"viability, T/C","second compound 0.316 µM, first compound 0.00949 µM",114%
same,"viability, T/C","second compound 0.316 µM, first compound 0.03 µM",109%
same,"viability, T/C","second compound 0.316 µM, first compound 0.0949 µM",97.1%
same,"viability, T/C","second compound 0.316 µM, first compound 0.3 µM",6.48%
same,"viability, T/C","second compound 0.316 µM, first compound 0.949 µM",0.2%
same,"viability, T/C","second compound 0.316 µM, first compound 3 µM",0.13%
same,"viability, T/C","second compound 1 µM, first compound 0.00949 µM",111%
same,"viability, T/C","second compound 1 µM, first compound 0.03 µM",110%
same,"viability, T/C","second compound 1 µM, first compound 0.0949 µM",92%
same,"viability, T/C","second compound 1 µM, first compound 0.3 µM",5.06%
same,"viability, T/C","second compound 1 µM, first compound 0.949 µM",0.25%
same,"viability, T/C","second compound 1 µM, first compound 3 µM",0.13%
same,"viability, T/C","second compound 3.16 µM, first compound 0.00949 µM",111%
same,"viability, T/C","second compound 3.16 µM, first compound 0.03 µM",111%
same,"viability, T/C","second compound 3.16 µM, first compound 0.0949 µM",81.3%
same,"viability, T/C","second compound 3.16 µM, first compound 0.3 µM",4.61%
same,"viability, T/C","second compound 3.16 µM, first compound 0.949 µM",0.18%
same,"viability, T/C","second compound 3.16 µM, first compound 3 µM",1.02%
same,"viability, T/C","second compound 10 µM, first compound 0.00949 µM",104%
same,"viability, T/C","second compound 10 µM, first compound 0.03 µM",98.5%
same,"viability, T/C","second compound 10 µM, first compound 0.0949 µM",62.6%
same,"viability, T/C","second compound 10 µM, first compound 0.3 µM",3.34%
same,"viability, T/C","second compound 10 µM, first compound 0.949 µM",0.19%
same,"viability, T/C","second compound 10 µM, first compound 3 µM",1.28%
